This is an account of results in patent US20120179381A1, “TOXICITY SCREENING METHODS” (priority 2010, published 2012).

The structures appear in SMILES notation.

Series [1] relates to primary hepatocytes in sandwich culture; Rat (H4IIE) cells. Briefly: General cell health / mitochondrial function (ATP) cytotoxicity assays of the liver toxicity screen. Format: cell-based. The following applies: for IC50: Rattus norvegicus, H4IIE, Table 2, unit inferred. On the procedure: (§1) Cell Culture: Primary hepatocytes in sandwich culture were obtained freshly-plated from outside vendors and used to assess general liver toxicity. Hepatocytes were plated in 24-well or 96-well microplates at a density of 400 K/well and 100 K/well, respectively, and kept at 37° C., 5% CO2 in a humidified incubator. Sandwich culture plates have a collagen substratum with Matrigel overlay, optimal growth conditions for hepatocytes with intact and functional bile canalicular networks. After 3 days in culture, cells were shipped to the inventor. Upon receipt, medium was replaced with fresh Williams E medium (Sigma) containing 10% bovine serum (Invitrogen), and cells were acclimated overnight prior to treatment (Hewitt et al. 2007).
Rat (H4IIE) cells were seeded in flat bottom 96-well plates at a density of 10,000 cells/well in Eagles Minimum Essential Medium (Sigma Chemical) supplemented with 10% bovine serum and 10% calf serum (Invitrogen). Cells were allowed to equilibrate for approximately 48 hours to allow cells to move into a stable growth phase prior to treatment.
(§2) Cytotoxicity: ATP was measured using an ATP-Lite kit from Perkin Elmer according to the manufacturer's instructions. Membrane integrity was monitored by determining the presence of α-Glutathione S-transferase (α-GST), released into the culture medium using an ELISA assay (Argutus Medical). Intracellular glutathione levels were determined essentially as described by Griffith (1980) with modifications. Cell mass in each well was measured with propidium iodide (PI). This specific nucleic acid binding dye fluoresces when intercalated within the nucleic acids. After incubation, the test compound was removed by aspiration of the media and Triton X-100 solution containing propidium iodide was added to permeabilized cells.

Series [2] addresses T1, BSEP (UniProt O95342, species not given).
T1 construct: rows headed: BSEP
The series can be described thus: BSEP cell-free transport assay. Format: biochemical, Rat or human. The following applies: BSEP cell-free transport assay (GenoMembrane); Table 2; number or Y/N for inhibition, unit inferred. The protocol: (§3) Rat or human BSEP cell-free assay were performed according to GenoMembrane protocol for BSEP transport analysis.

For series [3] the following is noted: Table 2; Y/N; cited from earlier work.
In a further series the target is OCT2 (Sus scrofa, UniProt O02713). As to conditions: Cimetidine at 500 μM or 1 mM; LLC-PK1 cell model; FIG. 4. On the procedure:
(§4) Cell Culture: Two cell types were used in this Example—primary human renal proximal tubule cells (hRPTCs) and a well characterized porcine renal proximal tubule (LLC-PK1) cell line. The hRPTCs were obtained from Lonza, Clonetics (Walkersville, Md.) and the LLC-PK1 was obtained from ATCC.
(§5) Establishing Transwell Cultures: The hRPTCs were seeded into Corning transwell-COL 24-well tissue culture plates at a density of 7.4×10^4 cells/well. LLC-PK1 cells were seeded into BD 351181 transwell 24-well tissue culture plates at a cell density of 1.65×10^5 cells/well (FIG. 3). On day 6 of incubation, formation of tight-junctions between cells was determined by Lucifer Yellow and Mannitol. The growth medium used with the hRPTCs was modified DMEM/Ham's F-12, and the medium used for LLC-PK1 was DMEM with 10% FBS (Elwi et al. 2009; Morshed and McMartin, 1995).
(§6) Transport Assays: To determine transporter specific activity, several known substrates were selected: TEA (OCT1 and OCT2), Digoxin (OATP4C1), Metformin (OCT2 basolateral and MATE1 apical). LLC-PK1 cells were seeded in BD 351181 24-well tissue culture plates at a cell density of 1.65×10^5 cells/well. After culturing for 6 days, apical and basolateral chambers were washed at room temperature with D-PBS buffer (containing 137 mM NaCl, 3 mM KCl, 8 mM Na2HPO4, 1.5 mM KH2PO4, 1 mM CaCl2, 0.5 mM MgCl2 and 5 mM D-glucose; pH 7.4) then incubated with non-radiolabeled substrate on both apical and basolateral sides for 60 minutes. Media was removed and the cells rinsed with buffer prior to adding the radiolabeled substrate. Radiolabeled substrate (with or without inhibitor) was added to apical or basolateral chambers, and samples were collected from the opposite side at 40 minutes. Cellular uptake was determined by washing the transwell membranes containing the cells twice with ice-cold D-PBS, then transferring the insert with cells to scintillation vials containing 2% Triton X-100. Scintillation was counted using Opti-Flour (Perkin Elmer) and in a Packard Tri-Carb 2100TR liquid scintillation counter.

In the next series the target is hOCT2 (Homo sapiens, UniProt O15244). The following applies: hRPTCs; FIG. 4. The protocol: as §4, §5, §6
The test system of series [4] is primary hepatocytes in sandwich culture; Rat (H4IIE) cells. The series can be described thus: Intracellular glutathione (GSH) levels, liver toxicity screen. Format: cell-based. As to conditions: FIG. 12, read-out: depleting intracellular glutathione levels, IC50. The protocol:
as §1, with “2007). […]” for “2007).”
Cytotoxicity: ATP was measured using an ATP-Lite kit from Perkin Elmer according to the manufacturer's instructions. Membrane integrity was monitored by determining the presence of α-Glutathione S-transferase (α-GST), released into the culture medium using an ELISA assay (Argutus Medical). Intracellular glutathione levels were determined essentially as described by Griffith (1980) with modifications. Cell mass in each well was measured with propidium iodide (PI). […]

The test system of series [5] is BSEP. Briefly: BSEP cell-free transport assay. Format: biochemical, Rat or human. As to conditions: Table 2; number or Y/N for inhibition, unit not given. On the procedure:
as §3

For series [6], the system named is primary hepatocytes in sandwich culture. Briefly: Liver specific toxicity assays in primary hepatocytes in sandwich culture (GSH, mitochondria, oxidative stress, GGT). The following applies: FIG. 11. The series is classed as cell-based. On the procedure:
as §1, §2
8-ISO levels were determined using an ELISA. 8-ISO is a member of a family of eicosanoids produced non-enzymatically by random oxidation of tissue phospholipids by oxygen radicals. Therefore, an increase in 8-ISO is an indirect measure of increased lipid peroxidation (Vacchiano and Tempel, 1994).
γ-Glutamyltransferase (GGT) activity was measured using the Catachem GGT kit with modifications. After completion of exposures, media was removed from the plates and cell and cell supernatants were stored at −80° C. until analyzed.

The next series relates to hRPTC. Briefly: Cisplatin cytotoxicity in primary human renal proximal tubule cells (ATP, cell number, membrane integrity, GGT). Format: cell-based. As to conditions: FIG. 6, read-out: IC50 for ATP depletion. The protocol: Cytotoxicity: Cell viability was determined by measuring intracellular ATP levels with ATP-Lite from Perkin Elmer according to the manufacturer's instructions. Cell proliferation was determined from bromodeoxyuridine (BrdU) incorporation. Membrane integrity was measured using glutathione S-transferase (GST) as a leakage marker (Argutus). The GST assay was done according to the manufacturer's instructions. Gamma-glutamyl transferase activity (GGT) was measured using the Catachem GGT kit with modifications.

A further series concerns CYP3A. The series can be described thus: Inhibition of CYP3A. Format: in vitro ADME. As to conditions: Table 2; number or Y/N, unit inferred.

Sequence of OCT2 (O02713 whole entry): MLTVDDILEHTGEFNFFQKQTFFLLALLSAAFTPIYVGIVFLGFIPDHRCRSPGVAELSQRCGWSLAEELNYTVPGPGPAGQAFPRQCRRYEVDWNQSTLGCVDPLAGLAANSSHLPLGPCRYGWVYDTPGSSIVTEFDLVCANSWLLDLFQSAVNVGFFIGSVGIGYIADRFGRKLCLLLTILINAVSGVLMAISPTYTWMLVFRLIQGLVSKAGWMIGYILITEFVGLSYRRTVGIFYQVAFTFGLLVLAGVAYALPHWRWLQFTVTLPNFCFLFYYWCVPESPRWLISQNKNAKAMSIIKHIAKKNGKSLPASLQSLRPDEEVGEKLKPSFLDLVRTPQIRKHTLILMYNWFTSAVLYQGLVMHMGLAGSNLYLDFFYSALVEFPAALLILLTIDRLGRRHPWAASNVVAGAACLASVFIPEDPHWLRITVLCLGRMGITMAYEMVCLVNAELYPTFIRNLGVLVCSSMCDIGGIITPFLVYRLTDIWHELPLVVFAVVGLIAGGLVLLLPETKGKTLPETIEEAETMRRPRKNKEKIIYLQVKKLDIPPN
Sequence of hOCT2 (O15244 whole entry): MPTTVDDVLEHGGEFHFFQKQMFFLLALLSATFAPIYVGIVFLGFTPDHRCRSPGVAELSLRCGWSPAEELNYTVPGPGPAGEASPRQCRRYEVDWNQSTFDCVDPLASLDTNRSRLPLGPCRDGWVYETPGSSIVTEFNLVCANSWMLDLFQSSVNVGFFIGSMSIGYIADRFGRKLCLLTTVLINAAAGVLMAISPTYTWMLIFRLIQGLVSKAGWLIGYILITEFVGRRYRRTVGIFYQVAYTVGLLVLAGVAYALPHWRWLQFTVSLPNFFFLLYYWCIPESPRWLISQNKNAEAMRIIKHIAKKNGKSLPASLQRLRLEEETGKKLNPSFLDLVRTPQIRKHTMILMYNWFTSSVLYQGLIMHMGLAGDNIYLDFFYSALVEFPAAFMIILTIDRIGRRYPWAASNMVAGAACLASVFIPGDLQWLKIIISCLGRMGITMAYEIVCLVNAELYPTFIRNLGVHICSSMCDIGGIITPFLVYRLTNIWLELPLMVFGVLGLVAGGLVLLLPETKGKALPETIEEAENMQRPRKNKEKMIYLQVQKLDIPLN

Consider `CCc1ccc(CCOc2ccc(CC3SC(=O)NC3=O)cc2)nc1` (stereo not shown) [Pioglitazone], for which the IC50 (usually the concentration that gives 50% inhibition) in [1] was over 300 µM; against BSEP [2], 5 µM. For the same compound, the “Clin Cholestatic” value in [3] is “Y-reversible”.

As to `CN/C(=N/CCSCc1nc[nH]c1C)NC#N` [Cimetidine], on OCT2, the “basolateral to apical flux (metformin), effect of inhibitor” value was “inhibited” and the “cellular uptake (metformin), effect of inhibitor” value was “inhibited”. In addition, on hOCT2, the “basolateral-to-apical flux (metformin), effect of inhibitor” value was “not inhibited” and the “cellular uptake (metformin), effect of inhibitor” value is “inhibited”.

For the compound `CCc1nn(CCCN2CCN(c3cccc(Cl)c3)CC2)c(=O)n1CCOc1ccccc1` [nefazodone], the “general cell health, toxicity relative to the other non-tricyclic antidepressants” value in series [1] (FIG. 12, comparison of three non-tricyclic antidepressants) is “most toxic”. Also, in series [4], the IC50 is under 50 µM. Moreover, in the series on BSEP [5], the BSEP entry was “inhibition”.

As to `CN(CCOc1ccc(CC2SC(=O)NC2=O)cc1)c1ccccn1` (stereo not shown) [Rosiglitazone], the IC50 in series [1] is over 300 µM; on BSEP [2], 8 µM.

On to `S=C=Nc1cccc2ccccc12` [ANIT, α-naphthyl-isothiocyanate], for which, in series [6], the “canalicular membrane integrity (GGT release)” value is on record as “damaged”, the glutathione entry is reported as “decreased”, the mitochondria entry is “disrupted” and the oxidative stress entry was “increased”.

Turning to `N.N.[Cl][Pt][Cl]` [cisplatin], the IC50 in the series on hRPTC was about 80 µM.

On to `CCC(C)n1ncn(-c2ccc(N3CCN(c4ccc(OCC5COC(Cn6cncn6)(c6ccc(Cl)cc6Cl)O5)cc4)CC3)cc2)c1=O` (stereo not shown) [Itraconazole], for which the IC50 came out at 150 µM in [1] and 2.3 µM in the series on CYP3A.
